“And” between values parts separate entries of the source, which are not always exact repeats. Equal entries are not always repeated. One block for each molecule: values may come before it.
Test system: 379773-124-R-J2-PDC complex spheroids, viability % test/control
Experiment: Anticancer human tumor 379773-124-R-J2-PDC patient-derived endometrial carcinoma cell line growth inhibition [CLK]
Settings: for viability, T/C: stronger effect = lower value
How it was run: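 Patient-derived tumor cells grown as complex spheroids with HUVEC endothelial cells and mesenchymal stem cells, treated with drug combinations. Concentrations descend in half-log steps from near clinical Cmax, or from 10 microM if Cmax unknown.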

[1] = curve of first compound, second compound 0.0316 µM
[2] = curve of first compound, second compound 0.1 µM
[3] = curve of first compound, second compound 0.316 µM
[4] = curve of first compound, second compound 1 µM
[5] = curve of first compound, second compound 3.16 µM
[6] = curve of first compound, second compound 10 µM
[7] = second compound 0.0316 µM, first compound 0.0316 µM
[8] = second compound 0.0316 µM, first compound 0.1 µM
[9] = second compound 0.0316 µM, first compound 0.316 µM
[10] = second compound 0.0316 µM, first compound 1 µM
[11] = second compound 0.1 µM, first compound 0.0316 µM
[12] = second compound 0.1 µM, first compound 0.1 µM
[13] = second compound 0.1 µM, first compound 0.316 µM
[14] = second compound 0.1 µM, first compound 1 µM
[15] = second compound 0.316 µM, first compound 0.0316 µM
[16] = second compound 0.316 µM, first compound 0.1 µM
[17] = second compound 0.316 µM, first compound 0.316 µM
[18] = second compound 0.316 µM, first compound 1 µM
[19] = second compound 1 µM, first compound 0.0316 µM
[20] = second compound 1 µM, first compound 0.1 µM
[21] = second compound 1 µM, first compound 0.316 µM
[22] = second compound 1 µM, first compound 1 µM
[23] = second compound 3.16 µM, first compound 0.0316 µM
[24] = second compound 3.16 µM, first compound 0.1 µM
[25] = second compound 3.16 µM, first compound 0.316 µM
[26] = second compound 3.16 µM, first compound 1 µM
[27] = second compound 10 µM, first compound 0.0316 µM
[28] = second compound 10 µM, first compound 0.1 µM
[29] = second compound 10 µM, first compound 0.316 µM
[30] = second compound 10 µM, first compound 1 µM
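Note: compound exposure lasted seven days before the viability readout.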
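Throughout, for viability, T/C: 100% = DMSO vehicle control wells.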

IC50 [1]: 59.5 nM
IC50 [2]: < 3.16 nM
IC50 [3]: < 3.16 nM
IC50 [4]: < 3.16 nM
IC50 [5]: < 3.16 nM
IC50 [6]: < 3.16 nM
Structure (SMILES): COc1c(OCCCN2CCOCC2)ccc2c3n(c(=NC(=O)c4cnc(N)nc4)nc12)CCN3 + CNC(=O)c1ccc(Nc2nc(OC3CCCC3)c3c(-c4ccc5nc(C)oc5c4)c[nH]c3n2)c(OC)c1
viability, T/C (second compound 0.0316 µM, first compound 0.00316 µM): 81.8%
viability, T/C (second compound 0.0316 µM, first compound 0.01 µM): 85.6%
viability, T/C [7]: 65%
viability, T/C [8]: 37.5%
viability, T/C [9]: 6.4%
viability, T/C [10]: 2.99%
viability, T/C (second compound 0.1 µM, first compound 0.00316 µM): 31.6%
viability, T/C (second compound 0.1 µM, first compound 0.01 µM): 29%
viability, T/C [11]: 25.3%
viability, T/C [12]: 14.5%
viability, T/C [13]: 4.25%
viability, T/C [14]: 1.91%
viability, T/C (second compound 0.316 µM, first compound 0.00316 µM): 34.9%
viability, T/C (second compound 0.316 µM, first compound 0.01 µM): 32.7%
viability, T/C [15]: 19.5%
viability, T/C [16]: 10.1%
viability, T/C [17]: 3.08%
viability, T/C [18]: 1.56%
viability, T/C (second compound 1 µM, first compound 0.00316 µM): 38.9%
viability, T/C (second compound 1 µM, first compound 0.01 µM): 25.7%
viability, T/C [19]: 17.8%
viability, T/C [20]: 7.48%
viability, T/C [21]: 1.73%
viability, T/C [22]: 1.03%
viability, T/C (second compound 3.16 µM, first compound 0.00316 µM): 28.3%
viability, T/C (second compound 3.16 µM, first compound 0.01 µM): 24.1%
viability, T/C [23]: 15.3%
viability, T/C [24]: 8.87%
viability, T/C [25]: 2.29%
viability, T/C [26]: 0.59%
viability, T/C (second compound 10 µM, first compound 0.00316 µM): 22.5%
viability, T/C (second compound 10 µM, first compound 0.01 µM): 21.5%
viability, T/C [27]: 16.8%
viability, T/C [28]: 7.19%
viability, T/C [29]: 1.54%
viability, T/C [30]: 0.67%

Structure (SMILES): CC1(C)CCC(CN2CCN(c3ccc(C(=O)NS(=O)(=O)c4ccc(NCC5CCOCC5)c([N+](=O)[O-])c4)c(Oc4cnc5[nH]ccc5c4)c3)CC2)=C(c2ccc(Cl)cc2)C1 + CN1CCN(c2cc(C(=O)Nc3cc4cc(-c5cnn(C)c5)ccc4cn3)ccn2)CC1
IC50 [1]: 4750 nM
IC50 [2]: 5030 nM
IC50 [3]: < 31.6 nM
IC50 [4]: < 31.6 nM
IC50 [5]: < 31.6 nM
IC50 [6]: < 31.6 nM
viability, T/C [7]: 99.5%
viability, T/C [8]: 88.1%
viability, T/C [9]: 86%
viability, T/C [10]: 108%
viability, T/C (second compound 0.0316 µM, first compound 3.16 µM): 74.1%
viability, T/C (second compound 0.0316 µM, first compound 10 µM): 6.08%
viability, T/C [11]: 84.1%
viability, T/C [12]: 81.3%
viability, T/C [13]: 88.3%
viability, T/C [14]: 87.8%
viability, T/C (second compound 0.1 µM, first compound 3.16 µM): 83.1%
viability, T/C (second compound 0.1 µM, first compound 10 µM): 1.06%
viability, T/C [15]: 26.2%
viability, T/C [16]: 26.1%
viability, T/C [17]: 26.7%
viability, T/C [18]: 28.9%
viability, T/C (second compound 0.316 µM, first compound 3.16 µM): 24.3%
viability, T/C (second compound 0.316 µM, first compound 10 µM): 1.02%
viability, T/C [19]: 0.19%
viability, T/C [20]: 1.14%
viability, T/C [21]: 0.4%
viability, T/C [22]: 0.16%
viability, T/C (second compound 1 µM, first compound 3.16 µM): 0.08%
viability, T/C (second compound 1 µM, first compound 10 µM): 0.07%
viability, T/C [23]: 0.86%
viability, T/C [24]: 0.92%
viability, T/C [25]: 2.05%
viability, T/C [26]: 0.09%
viability, T/C (second compound 3.16 µM, first compound 3.16 µM): 0.64%
viability, T/C (second compound 3.16 µM, first compound 10 µM): 0.09%
viability, T/C [27]: 0.1%
viability, T/C [28]: 0.14%
viability, T/C [29]: 0.15%
viability, T/C [30]: 0.61%
viability, T/C (second compound 10 µM, first compound 3.16 µM): 3.58%
viability, T/C (second compound 10 µM, first compound 10 µM): 0.16%

IC50 (curve of compound): < 31.6 nM
Structure (SMILES): CC(=O)O[C@H]1C(=O)[C@@]2(C)[C@H]([C@H](OC(=O)c3ccccc3)[C@]3(O)C[C@H](OC(=O)[C@H](O)[C@@H](NC(=O)c4ccccc4)c4ccccc4)C(C)=C1C3(C)C)[C@]1(OC(C)=O)CO[C@@H]1C[C@@H]2O
viability, T/C (compound 0.0316 µM): 6.12% and 4.78%
viability, T/C (compound 0.1 µM): 5.31% and 6.44%
viability, T/C (compound 0.316 µM): 6.35% and 7.02%
viability, T/C (compound 1 µM): 6.24% and 5.61%
viability, T/C (compound 3.16 µM): 4.99% and 3.42%
viability, T/C (compound 10 µM): 6.18% and 4.64%

IC50 (curve of compound): > 10000 nM
Structure (SMILES): C#Cc1c(F)ccc2cc(O)cc(-c3ncc4c(N5CC6CCC(C5)N6)nc(OCC56CCCN5CC(F)C6)nc4c3F)c12 (stereo not given)
viability, T/C (compound 0.0316 µM): 90.6% and 93%
viability, T/C (compound 0.1 µM): 79.4% and 89.5%
viability, T/C (compound 0.316 µM): 88.3% and 86.8%
viability, T/C (compound 1 µM): 92% and 85.9%
viability, T/C (compound 3.16 µM): 87% and 103%
viability, T/C (compound 10 µM): 80% and 87.1%

Structure (SMILES): NC(=O)C(=Cn1cnc(-c2cc(C(F)(F)F)cc(C(F)(F)F)c2)n1)c1cncnc1 + CN1CCN(c2cc(C(=O)Nc3cc4cc(-c5cnn(C)c5)ccc4cn3)ccn2)CC1
IC50 [1]: 59 nM
IC50 [2]: 47.7 nM
IC50 [3]: < 9.49 nM
IC50 [4]: < 9.49 nM
IC50 [5]: < 9.49 nM
IC50 [6]: < 9.49 nM
viability, T/C (second compound 0.0316 µM, first compound 0.00949 µM): 84.8%
viability, T/C (second compound 0.0316 µM, first compound 0.03 µM): 64.5%
viability, T/C (second compound 0.0316 µM, first compound 0.0949 µM): 39.2%
viability, T/C (second compound 0.0316 µM, first compound 0.3 µM): 22.6%
viability, T/C (second compound 0.0316 µM, first compound 0.949 µM): 11.4%
viability, T/C (second compound 0.0316 µM, first compound 3 µM): 5.29%
viability, T/C (second compound 0.1 µM, first compound 0.00949 µM): 60.4%
viability, T/C (second compound 0.1 µM, first compound 0.03 µM): 57.7%
viability, T/C (second compound 0.1 µM, first compound 0.0949 µM): 39.9%
viability, T/C (second compound 0.1 µM, first compound 0.3 µM): 17.9%
viability, T/C (second compound 0.1 µM, first compound 0.949 µM): 8.03%
viability, T/C (second compound 0.1 µM, first compound 3 µM): 2.96%
viability, T/C (second compound 0.316 µM, first compound 0.00949 µM): 16.4%
viability, T/C (second compound 0.316 µM, first compound 0.03 µM): 14.8%
viability, T/C (second compound 0.316 µM, first compound 0.0949 µM): 7.32%
viability, T/C (second compound 0.316 µM, first compound 0.3 µM): 3.49%
viability, T/C (second compound 0.316 µM, first compound 0.949 µM): 1.06%
viability, T/C (second compound 0.316 µM, first compound 3 µM): 0.04%
viability, T/C (second compound 1 µM, first compound 0.00949 µM): 0.1%
viability, T/C (second compound 1 µM, first compound 0.03 µM): 0.12%
viability, T/C (second compound 1 µM, first compound 0.0949 µM): 0.3%
viability, T/C (second compound 1 µM, first compound 0.3 µM): 0.14%
viability, T/C (second compound 1 µM, first compound 0.949 µM): 1.96%
viability, T/C (second compound 1 µM, first compound 3 µM): 0.06%
viability, T/C (second compound 3.16 µM, first compound 0.00949 µM): 2.45%
viability, T/C (second compound 3.16 µM, first compound 0.03 µM): 0.72%
viability, T/C (second compound 3.16 µM, first compound 0.0949 µM): 0.44%
viability, T/C (second compound 3.16 µM, first compound 0.3 µM): 0.13%
viability, T/C (second compound 3.16 µM, first compound 0.949 µM): 0.11%
viability, T/C (second compound 3.16 µM, first compound 3 µM): 0.11%
viability, T/C (second compound 10 µM, first compound 0.00949 µM): 0.45%
viability, T/C (second compound 10 µM, first compound 0.03 µM): 0.13%
viability, T/C (second compound 10 µM, first compound 0.0949 µM): 1.03%
viability, T/C (second compound 10 µM, first compound 0.3 µM): 0.18%
viability, T/C (second compound 10 µM, first compound 0.949 µM): 0.19%
viability, T/C (second compound 10 µM, first compound 3 µM): 0.17%

— PubChem BioAssay AID2060604 (Molecular Pharmacology Branch, DTP, NCI, 2025)
